# Test results as given in PubChem BioAssay AID1963866 (Molecular Pharmacology Branch, DTP, NCI, 2024).
# System: PDC KRAS tumor spheroids with HUVEC/MSC, viability
# Assay: Anticancer human tumor 349418-098-R-PDC patient-derived lung adenocarcinoma cell line growth inhibition [KRAS2]
# Conditions: for IC50: curve of first compound; for viability, T/C: stronger effect = lower value
# Procedure, shortened: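 KRAS-mutant tumor cells were grown as spheroids with HUVEC endothelial cells and human MSCs as stroma. Targeted agents were tested alone and with KRAS pathway inhibitors. Doses started at or near clinical Cmax, or 10 microM, descending half-log.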
# [1] = second compound 0.1 µM, first compound 0.0316 µM
# [2] = second compound 0.1 µM, first compound 0.1 µM
# [3] = second compound 0.1 µM, first compound 0.316 µM
# [4] = second compound 0.1 µM, first compound 1 µM
# [5] = second compound 0.1 µM, first compound 3.16 µM
# [6] = second compound 0.1 µM, first compound 10 µM
# [7] = second compound 0.316 µM, first compound 0.0316 µM
# [8] = second compound 0.316 µM, first compound 0.1 µM
# [9] = second compound 0.316 µM, first compound 0.316 µM
# [10] = second compound 0.316 µM, first compound 1 µM
# [11] = second compound 0.316 µM, first compound 3.16 µM
# [12] = second compound 0.316 µM, first compound 10 µM
# [13] = second compound 1 µM, first compound 0.0316 µM
# [14] = second compound 1 µM, first compound 0.1 µM
# [15] = second compound 1 µM, first compound 0.316 µM
# [16] = second compound 1 µM, first compound 1 µM
# [17] = second compound 1 µM, first compound 3.16 µM
# [18] = second compound 1 µM, first compound 10 µM
# [19] = second compound 3.16 µM, first compound 0.0316 µM
# [20] = second compound 3.16 µM, first compound 0.1 µM
# [21] = second compound 3.16 µM, first compound 0.316 µM
# [22] = second compound 3.16 µM, first compound 1 µM
# [23] = second compound 3.16 µM, first compound 3.16 µM
# [24] = second compound 3.16 µM, first compound 10 µM
# [25] = second compound 10 µM, first compound 0.0316 µM
# [26] = second compound 10 µM, first compound 0.1 µM
# [27] = second compound 10 µM, first compound 0.316 µM
# [28] = second compound 10 µM, first compound 1 µM
# [29] = second compound 10 µM, first compound 3.16 µM
# [30] = second compound 10 µM, first compound 10 µM
# 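Also: spheroids exposed to compounds for seven days before readout.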
SMILES,IC50 (second compound 0.1 µM) [nM],IC50 (second compound 0.316 µM) [nM],IC50 (second compound 1 µM) [nM],IC50 (second compound 3.16 µM) [nM],IC50 (second compound 10 µM) [nM],"viability, T/C [1] [%]","viability, T/C [2] [%]","viability, T/C [3] [%]","viability, T/C [4] [%]","viability, T/C [5] [%]","viability, T/C [6] [%]","viability, T/C [7] [%]","viability, T/C [8] [%]","viability, T/C [9] [%]","viability, T/C [10] [%]","viability, T/C [11] [%]","viability, T/C [12] [%]","viability, T/C [13] [%]","viability, T/C [14] [%]","viability, T/C [15] [%]",other results
COC(=O)c1ccc2c(C(=Nc3ccc(N(C)C(=O)CN4CCN(C)CC4)cc3)c3ccccc3)c(O)[nH]c2c1 + CNCc1ccccc1-c1csc(C(C)Nc2nc(C)nc3cc(OC)c(OC)cc23)c1,445,270,53.6,< 31.6,< 31.6,84.1,96.6,55.8,29.8,12.4,12.9,75.3,84.9,42.5,25.7,6.84,13,56.5,41.4,27.6,"viability, T/C [16]: 10.6%; viability, T/C [17]: 1.75%; viability, T/C [18]: 1.57%; viability, T/C [19]: 0.32%; viability, T/C [20]: 0.25%; viability, T/C [21]: 0.19%; viability, T/C [22]: 0.06%; viability, T/C [23]: 0.13%; viability, T/C [24]: 0.15%; viability, T/C [25]: 0.09%; viability, T/C [26]: 0.07%; viability, T/C [27]: 0.06%; viability, T/C [28]: 0.06%; viability, T/C [29]: 0.05%; viability, T/C [30]: 0.09%"
COc1cc(Nc2ncc3c(n2)-c2ccc(Cl)cc2C(c2c(F)cccc2OC)=NC3)ccc1C(=O)O + CNCc1ccccc1-c1csc(C(C)Nc2nc(C)nc3cc(OC)c(OC)cc23)c1,< 31.6,< 31.6,< 31.6,< 31.6,< 31.6,51.9,26.1,38.8,36.7,32.7,24.8,51.1,26.1,35.7,32.2,32.8,28.8,40.2,23.6,32.4,"viability, T/C [16]: 26.8%; viability, T/C [17]: 25.9%; viability, T/C [18]: 26.7%; viability, T/C [19]: 0.15%; viability, T/C [20]: 0.11%; viability, T/C [21]: 0.14%; viability, T/C [22]: 0.14%; viability, T/C [23]: 0.08%; viability, T/C [24]: 0.29%; viability, T/C [25]: 0.08%; viability, T/C [26]: 0.07%; viability, T/C [27]: 0.08%; viability, T/C [28]: 0.08%; viability, T/C [29]: 0.08%; viability, T/C [30]: 0.13%"
O=C(c1cc(Cc2n[nH]c(=O)c3ccccc23)ccc1F)N1CCN(C(=O)C2CC2)CC1 + CNCc1ccccc1-c1csc(C(C)Nc2nc(C)nc3cc(OC)c(OC)cc23)c1,4090,2900,2530,< 31.6,< 31.6,101,99.5,83,71,58.1,31.4,107,101,78.5,69.7,48.4,29,99.5,77.8,75.3,"viability, T/C [16]: 69.6%; viability, T/C [17]: 45.3%; viability, T/C [18]: 27.8%; viability, T/C [19]: 0.19%; viability, T/C [20]: 0.21%; viability, T/C [21]: 0.12%; viability, T/C [22]: 0.11%; viability, T/C [23]: 0.1%; viability, T/C [24]: 0.11%; viability, T/C [25]: 0.08%; viability, T/C [26]: 0.08%; viability, T/C [27]: 0.08%; viability, T/C [28]: 0.07%; viability, T/C [29]: 0.07%; viability, T/C [30]: 0.17%"
